Source: US20250179047A1, “5-[7-(3,4-DIHYDRO-1H-ISOQUINOLINE-2-CARBONYL)-1,2,3,4 TETRAHYDROISOQUINOLIN-6-YL]-1H-PYRROLE-3-CARBOXAMIDE DERIVATIVES, PHARMACEUTICAL COMPOSITIONS CONTAINING THEM AND THEIR USES AS PRO-APOPTOTIC AGENTS” (LES LABORATOIRES SERVIER, priority 2022, published 2025)
Where two headings read alike, the source gives them in different places.

Legend:
[1] = molecular target: BCL2 D111A (Homo sapiens, UniProt P10415, D111A); test: TR-FRET competitive binding assay, BCL2 D111A; settings: Ki determined from IC50, read-out: TR_FRET EKI_Bcl2 D111A
Experimental: (§1) The relative binding potency of each compound was determined in a competitive binding assay using time resolved-fluorescence resonance energy transfer (TR-FRET). The method utilised a fluorescein labelled peptide derived from PUMA (5Flu-Ahx-[…]-NH2 wherein Ahx means 6-hexanoic acid monomer and the amino acid sequence is referred to as SEQ ID:01) which binds to a terbium labelled BCL2 or BCLXL protein. The degree of binding or corresponding compound inhibition can be quantified by the TR-FRET signal between the terbium donor and fluorescein acceptor.
(§2) The human BCL2_wild-type (also named BCL2_wt), BCL2_G101V mutant and BCLXL_wild-type were E. coli expressed as a N-terminal Halo-fusion proteins and singly labelled with Terbium on the Halo protein to afford the following amino acid sequences:
(§3) wherein the BCL2(1-207) sequence corresponds to UniProtKB® primary accession number P10415 and the BCLXL(2-196) sequence corresponds to UniProtKB® primary accession number Q07817-1.
(§4) The assay was performed in a 40 μL volume in white 384-standard well plates (Corning #3574). An 11-point serial dilution of each compound was prepared in DMSO and transferred directly to plate followed by addition of fluorescein labelled peptide and lastly protein. Final assay conditions were 0.5 nM BCL2_wt, BCL2_G101V, BCL2_D103Y, BCL2_F104I, BCL2_D111A or BCLXL_wt, 2 or 20 nM fluorescein labelled peptide, 50 mM Hepes pH 7.5, 150 mM NaCl, 0.5 mM TCEP (Tris(2-carboxyethyl)phosphine), 0.05% Tween 20, 5% DMSO. The mixture was incubated for 2 hours at 23° C.
(§5) TR-FRET measurements were performed on a Biotek Synergy Neo plate reader. TR-FRET was measured by excitation of the Terbium-donor at 340 nm and subsequent (delay time 100 μs) measurement of terbium and fluorescein emission at 495 nm and 520 nm, respectively, over a collection time of 300 μs. The TR-FRET signal was calculated as the emission-ratio at 520 nm over 495 nm.
(§6) The TR-FRET ratio readout for test compounds was normalized against 0% inhibition controls wells and 100% inhibition control wells. Test compound potency (IC50) was estimated by nonlinear regression using the sigmoidal dose-response (variable slope) using Xlfit 4 (IDBS, Guildford, Surrey, UK, model 205). Were the IC50 could not be determined the % inhibition at the highest tested concentration is given.
(§7) y=(A+((B−A)/(1+((C/x)^D))))
(§8) where y is the normalized TR-TRET ratio measurement for a given concentration of test compound, x is the concentration of test compound, A is the estimated efficacy (% inhibition) at infinite compound dilution, and B is the maximal efficacy (% inhibition). C is the IC50 value and D is the Hill slope coefficient.
(§9) The K1 values were determined from the IC50 values according to Cer et al, Nucleic Acids Res, 2009, July 1; 37 (WebServer issue): W441-W445.

[2] = molecular target: BCL2 F104I (Homo sapiens, UniProt P10415, F104I); test: TR-FRET competitive binding assay, BCL2 F104I; settings: Ki determined from IC50, read-out: TR_FRET EKI_Bcl2 F104I
Experimental: as §1, §2, §3, §4, §5, §6, §7, §8, §9

[3] = system: BCL2 G101V; test: TR-FRET competitive binding assay, BCL2 G101V; parameters: species or system human; settings: for TR_FRET EKI G101V/WT selectivty ratio: ratio Ki BCL2 G101V / Ki BCL2 WT
Procedure, shortened: (§10)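 Competitive TR-FRET displacement of fluorescein-PUMA peptide (2 or 20 nM) from 0.5 nM terbium-labelled N-terminal Halo-fusion BCL2 (1-207, wild type or mutant) or BCLXL (2-196), expressed in E. coli. Buffer 50 mM Hepes pH 7.5, 150 mM NaCl, 5% DMSO; 2 h at 23°C. 520/495 nm ratio fitted over 11 points for IC50, converted to Ki.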

[4] = molecular target: BCL2 G101V (Homo sapiens, UniProt P10415, G101V); test: TR-FRET competitive binding assay, BCL2 G101V; settings: BCL2 G101V; Ki determined from IC50; read-out: TR_FRET EKI_Bcl2 G101V
Procedure, shortened: as §10

[5] = system: KMS-12-PE Bcl-2 G101V; test: In vitro cytotoxicity CellTiter-Glo 48 h, KMS-12-PE Bcl-2 G101V; format: cell-based; settings: for Ratio (G101V/WT): C50 KMS-12-PE Bcl-2 G101V over C50 KMS-12-PE Bcl-2 WT; for IC50: 48 h, CellTiter-Glo, C50 = concentration needed to reach 50% of the cellular viability
Procedure, shortened: (§11)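 CTG luminescence read-out; C50 = concentration reaching 50% cellular viability. Cells: KMS-12-PE expressing Bcl-2 WT or G101V (lentiviral, TagRFP-sorted). 11-pt curve, 48 h, 37 °C/5% CO2.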

[6] = molecular target: BCLXL WT (Homo sapiens (Human), UniProt Q07817); test: TR-FRET competitive binding assay, BCLXL WT; settings: for Ki: BCLXL WT, Ki determined from IC50, read-out: TR_FRET EKI BclxL; for TR_FRET EKI BCLxL/WT selectivty ratio: ratio Ki BCLxL / Ki BCL2 WT
Chain of BCLXL WT (Q07817 other isoform, or with tags, fused parts or gaps): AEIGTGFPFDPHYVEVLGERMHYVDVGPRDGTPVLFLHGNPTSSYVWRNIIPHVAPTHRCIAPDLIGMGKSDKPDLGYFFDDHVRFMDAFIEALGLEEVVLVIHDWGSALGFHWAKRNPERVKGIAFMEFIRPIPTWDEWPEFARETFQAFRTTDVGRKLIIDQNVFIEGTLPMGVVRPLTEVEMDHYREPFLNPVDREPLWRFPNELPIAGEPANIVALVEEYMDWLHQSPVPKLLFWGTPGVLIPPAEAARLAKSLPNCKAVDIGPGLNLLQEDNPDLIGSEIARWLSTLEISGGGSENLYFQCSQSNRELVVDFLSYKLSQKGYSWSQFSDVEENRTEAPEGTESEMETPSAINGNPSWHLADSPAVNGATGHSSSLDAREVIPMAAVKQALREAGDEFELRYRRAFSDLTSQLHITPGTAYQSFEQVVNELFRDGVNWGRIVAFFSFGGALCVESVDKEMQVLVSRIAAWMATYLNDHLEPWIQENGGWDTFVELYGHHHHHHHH
Procedure, shortened: as §10

[7] = molecular target: BCL2 D103Y (Homo sapiens, UniProt P10415, D103Y); test: TR-FRET competitive binding assay, BCL2 D103Y; settings: Ki determined from IC50, read-out: TR_FRET EKI_Bcl2 D103Y
Procedure, shortened: as §10

[8] = molecular target: BCL2 WT (Homo sapiens (Human), UniProt P10415); test: TR-FRET competitive binding assay, BCL2 WT
Procedure, shortened: as §10

[9] = system: KMS-12-PE Bcl-2 WT; test: In vitro cytotoxicity CellTiter-Glo 48 h, KMS-12-PE Bcl-2 WT; format: cell-based; settings: Homo sapiens, KMS-12-PE, C50 = concentration needed to reach 50% of the cellular viability
Procedure, shortened: as §11

[10] = Ki determined from IC50, read-out: TR_FRET EKI_Bcl2 WT

| Structure (SMILES) | Ki [1] [pM] | Ki [2] [pM] | TR_FRET EKI G101V/WT selectivty ratio [3] | Ki [4] [pM] | Ratio (G101V/WT) [5] | IC50 ([5]; Homo sapiens, KMS-12-PE) [µM] | Ki [6] [pM] | TR_FRET EKI BCLxL/WT selectivty ratio [6] | Ki [7] [pM] | Ki [8, 10] [pM] | IC50 [9] [µM] | IC50 [5] [µM] | TR_FRET EKI G101V/WT selectivty ([3]; ratio of Ki BCL2 G101V to BCL2 WT) | TR_FRET EKI BCLxL/WT selectivty ([6]; ratio of Ki BCLxL to BCL2 WT) | Ki ([8]; Ki determined from IC50, read-out: TR_FRET EKI_Bcl2) [pM] |
| --- | --- | --- | --- | --- | --- | --- | --- | --- | --- | --- | --- | --- | --- | --- | --- |
| Cc1c(N(C(=O)c2cc(-c3cc4c(cc3C(=O)N3Cc5ccccc5C[C@H]3C)CN(C(=O)Cc3ccc(OCCN5C[C@H](C)O[C@@H](C)C5)cc3)CC4)n(C)c2C)c2ccc(O)cc2)cc(C#N)n1C (single isomer, unassigned) [Example 42, N-(5-cyano-1,2-dimethyl-1H-pyrrol-3-yl)-5-{2-[2-(4-{2-[(2R or S,6R or S)-2,6-dimethylmorpholin-4-yl]ethoxy}phenyl)acetyl]-7-[(3R)-3-methyl-1,2,3,4-tetrahydroisoquinoline-2-carbonyl]-1,2,3,4-tetrahydroisoquinolin-6-yl}-N-(4-hydroxyphenyl)-1,2-dimethyl-1H-pyrrole-3-carboxamide] | 360 | 760 | 1.8 | 300 | 3.77 | 0.0175 | 3000 | 16.7 | 620 | 180 | 0.0046 |  |  |  |  |
| Cc1c(N(C(=O)c2cc(-c3cc4c(cc3C(=O)N3Cc5ccccc5C[C@H]3C)CN(C(=O)Cc3ccc(N5CCC(N6CCOCC6)C5)cc3)CC4)n(C)c2C)c2ccc(O)cc2)cc(C#N)n1C (single isomer, unassigned) [Example 63, N-(5-cyano-1,2-dimethyl-1H-pyrrol-3-yl)-N-(4-hydroxyphenyl)-1,2-dimethyl-5-{7-[(3R)-3-methyl-1,2,3,4-tetrahydroisoquinoline-2-carbonyl]-2-(2-{4-[(3R or S)-3-(morpholin-4-yl)pyrrolidin-1-yl]phenyl}acetyl)-1,2,3,4-tetrahydroisoquinolin-6-yl}-1H-pyrrole-3-carboxamide] | 420 | 2840 | 7.8 | 900 | 5.84 | 0.046 | 1700 | 15.5 | 460 | 110 | 0.0079 |  |  |  |  |
| Cc1c(N(C(=O)c2cc(-c3cc4c(cc3C(=O)N3Cc5ccccc5C[C@H]3CN3CCCCC3)CN(C(=O)Cc3ccc(OCCN5CCOC(C)C5)cc3F)CC4)n(C)c2C)c2ccc(O)cc2)cc(C#N)n1C (single isomer, unassigned) [Example 108, N-(5-cyano-1,2-dimethyl-1H-pyrrol-3-yl)-5-[2-(2-{2-fluoro-4-[2-((2S or R)-2-methylmorpholin-4-yl)ethoxy]phenyl}acetyl)-7-[(3S)-3-[(piperidin-1-yl)methyl]-1,2,3,4-tetrahydroisoquinoline-2-carbonyl]-1,2,3,4-tetrahydroisoquinolin-6-yl]-N-(4-hydroxyphenyl)-1,2-dimethyl-1H-pyrrole-3-carboxamide] | 160 | 190 | 5.1 | 400 | 5.85 | 0.0383 | 2100 | 30.9 | 140 | 70 | 0.0066 |  |  |  |  |
| Cc1c(N(C(=O)c2cc(-c3cc4c(cc3C(=O)N3Cc5ccccc5C[C@H]3CN3CCCCC3)CN(C(=O)Cc3ccc(OCC(C)N5CCOCC5)cc3)CC4)n(C)c2C)c2ccc(O)cc2)cc(C#N)n1C (single isomer, unassigned) [Example 127, N-(5-cyano-1,2-dimethyl-1H-pyrrol-3-yl)-N-(4-hydroxyphenyl)-1,2-dimethyl-5-[2-(2-{4-[(2S or R)-2-(morpholin-4-yl)propoxy]phenyl}acetyl)-7-[(3S)-3-[(piperidin-1-yl)methyl]-1,2,3,4-tetrahydroisoquinoline-2-carbonyl]-1,2,3,4-tetrahydroisoquinolin-6-yl]-1H-pyrrole-3-carboxamide] | 130 | 260 | 4.3 | 200 | 3.58 |  | 3600 | 76.6 | 160 | 50 | 0.0077 | 0.0277 |  |  |  |
| Cc1c(N(C(=O)c2cc(-c3cc4c(cc3C(=O)N3Cc5ccccc5C[C@H]3CN3CCCCC3)CN(C(=O)Cc3ccc(OCC(C)N5CCOCC5)cc3F)CC4)n(C)c2C)c2ccc(O)cc2)cc(C#N)n1C (single isomer, unassigned) [Example 135, N-(5-cyano-1,2-dimethyl-1H-pyrrol-3-yl)-5-[2-(2-{2-fluoro-4-[(2S or R)-2-(morpholin-4-yl)propoxyphenyl}acetyl)-7-[(3S)-3-[(piperidin-1-yl)methyl]-1,2,3,4-tetrahydroisoquinoline-2-carbonyl]-1,2,3,4-tetrahydroisoquinolin-6-yl]-N-(4-hydroxyphenyl)-1,2-dimethyl-1H-pyrrole-3-carboxamide] | 170 | 340 | 5.8 | 400 | 7.72 | 0.0339 | 4500 | 60.8 | 210 | 70 | 0.0044 |  |  |  |  |
| Cc1c(N(C(=O)c2cc(-c3cc4c(cc3C(=O)N3Cc5ccccc5C[C@H]3C)CN(C(=O)Cc3cccc(N5CCOCC5)c3)CC4)n(C)c2C)c2ccc(O)cc2)cc(C#N)n1C [Example 6, N-(5-cyano-1,2-dimethylpyrrol-3-yl)-N-(4-hydroxyphenyl)-1,2-dimethyl-5-(7-{[(3R)-3-methyl-3,4-dihydro-1H-isoquinolin-2-yl]carbonyl}-2-{2-[3-(morpholin-4-yl)phenyl]acetyl}-3,4-dihydro-1H-isoquinolin-6-yl)pyrrole-3-carboxamide] |  | 2030 | 5.1 | 700 | 5.34 | 0.0566 | 1100 | 8.5 | 670 | 130 | 0.0106 |  |  |  |  |
| Cc1c(N(C(=O)c2cc(-c3cc4c(cc3C(=O)N3Cc5ccccc5C[C@H]3C)CN(C(=O)Cc3ccc(OCCN5CCOCC5)cc3)CC4)n(C)c2C)c2ccccc2)cc(C#N)n1C [Example 236] | 132 | 1120 |  | 730 |  |  | 4150 |  | 786 |  | 0.00418 |  | 9.3 | 53.1 | 78 |
